The text below walks through data of PMC5923478 (Viruses, 2018).

Data set [1] has as its system ZIKV surface E antigen expression. Type of data set: cell-based, Zika virus.
Data set [2] relates to WNV viral surface E antigen expression. The format is cell-based, West Nile virus.
The test system of a further data set is ZIKV, WNV and TBEV. Briefly: organism not typed. Type of data set: cell-based.
The subject of a further data set is Vero cells. The conditions noted are these: African green monkey; human.
In data set [3] the test system is ZIKV.
For data set [4], the system named is WNV.
Data set [5] relates to TBEV.
A further data set relates to Chikungunya virus. The following applies: Vero cells or primary human fibroblasts; cited from earlier work.
The test system of data set [6] is Crimean-Congo hemorrhagic fever virus. The following applies: cited from earlier work.
Another data set relates to HCV. Also on record: method as in ref 11 = [11]. The conditions noted are these: Huh 7.5.1 cells, 15 µM, 24 h to 48 h; cited from earlier work.
Data set [7] is described as follows: in vitro. The following applies: African green monkey.
A short description of data set [8]: in vitro. The following applies: pig.
Data set [9] is described as follows: in vitro.
In data set [10] the test system is ZIKV. The data set is described as follows: microbe, parasite or virus in culture. The conditions noted are these: Zika virus, Vero, 48 h.
The subject of data set [11] is WNV. The data set is described as follows: microbe, parasite or virus in culture. The following applies: West Nile virus, Vero, 48 h.
Data set [12] has as its system TBEV. The data set is described as follows: microbe, parasite or virus in culture. The conditions noted are these: Tick-borne encephalitis virus, Vero, 48 h.
Data set [13] deals with ZIKV. Also noted: method as in ref 24 = [24]. The conditions noted are these: depending on the cultivated cells used; cited from earlier work.

Each structure is given as a SMILES string. Where two headings read alike, the source gives them in different places.

For `CCOC(=O)c1c(CSc2ccccc2)n(C)c2cc(Br)c(O)c(CN(C)C)c12.Cl.O` [arbidol, ethyl-6-bromo-4-[(dimethylamino)methyl]-5-hydroxy-1-methyl-2-[(phenylthio)methyl]-indole-3-carboxylate hydrochloride monohydrate], the “ZIKV surface E antigen expression (immunofluorescence staining)” value in data set [1] was “dose-dependent inhibition”. The “WNV viral surface E antigen expression” value in data set [2] was “dose-dependent inhibition”. Further, in the data set on ZIKV, WNV and TBEV, the “antiviral effects in virus infected cells” value is “no antiviral effects”. In addition, the “viral titer in growth curves” value in the data set on ZIKV, WNV and TBEV is “rapid reduction of viral titer”. Also, the EC50 is 10.6 to 19.2 µM with ZIKV, WNV and TBEV (Vero, read-out: EC50 values, range over ZIKV, WNV and TBEV); 10.6 ± 0.74 µM with ZIKV [3]; 19.2 ± 0.29 µM in the data set on WNV [4]; under 10 µg/mL with Chikungunya virus; 2.8 µg/mL in data set [6]; 12.1 ± 0.77 µM in the data set on ZIKV [10]. Also, the figures for the EC50 in the data set on WNV [11] and with TBEV [12] were 18.8 ± 0.21 µM and 18.67 ± 0.15 µM, respectively. Further, in the data set on Vero cells, the “cytotoxicity in Vero cells lower than in Huh-7 cells” value is “about 5 times”. Also, the ZIKV replication result in the data set on ZIKV [3] is reported as “not inhibited”. The ZIKV viral replication result with ZIKV [3] was “inhibited completely”. Further, the “reduction in ZIKV titer compared to mock-treated cells” value in the data set on ZIKV [3] is “about 10^4 fold”. Also, in the data set on WNV [4], the “antiviral effects against WNV” value is listed as “little or no antiviral effects”. In addition, in the data set with TBEV [5], the “SI (CC50/EC50)” value came out at 4.81. The “TBEV viral titer reduction compared with non-treated cells” value in the data set with TBEV [5] is reported as 10^3 fold. For the same compound, the “inhibition of TBEV replication” value with TBEV [5] is “incomplete”. The “inhibition of HCV replication” value in the data set with HCV was “up to 10^3 fold”. The CC50 was 89.72 ± 0.19 µM in “in vitro [7]”; 46.8 ± 1.65 µM in the data set “in vitro [8]”; 18.7 to 89.7 µM in the data set “in vitro [9]”; 24.8 to 47 µM in the data set “in vitro [9]” (pig (PS), human (UKF-NB-4, HBCA)).
For the compound `CC(C)OC(=O)[C@H](C)N[P@](=O)(OC[C@H]1O[C@@H](n2ccc(=O)[nH]c2=O)[C@](C)(F)[C@@H]1O)Oc1ccccc1` [sofosbuvir], the “activity against ZIKV infection” value in the data set on ZIKV [13] is “differentially active”.
